Results taken from paper PMC6407913, “DREADD Agonist 21 Is an Effective Agonist for Muscarinic-Based DREADDs in Vitro and in Vivo” (ACS Pharmacology & Translational Science, 2018).
“And” between values parts separate entries of the source, which are not always exact repeats. Equal entries are not always repeated.

Columns and labels:
Type in all cases: cell-based
[1] = target: T1, 318 nonolfactory human GPCRs (Homo sapiens, UniProt O15354); details: GPR37; C21 5 µM
T1 construct: expressed in transfected cells; host or cells: HTLA cells, transient

[2] = target: T2, 318 nonolfactory human GPCRs (Homo sapiens, UniProt O95800); details: GPR75; C21 5 µM
T2 construct: expressed in transfected cells; host or cells: HTLA cells, transient

[3] = target: T3, 318 nonolfactory human GPCRs (Homo sapiens, UniProt P20309); details: CHRM3; C21 5 µM
T3 construct: expressed in transfected cells; host or cells: HTLA cells, transient

[4] = target: 318 nonolfactory human GPCRs (Homo sapiens, UniProt P28221); details: HTR1D; C21 5 µM
[5] = target: 318 nonolfactory human GPCRs (Homo sapiens, UniProt P28566); details: HTR1E; C21 5 µM
[6] = target: T4, 318 nonolfactory human GPCRs (Homo sapiens, UniProt P29274); details: ADORA2A; C21 5 µM
T4 construct: expressed in transfected cells; host or cells: HTLA cells, transient

[7] = target: T5, 318 nonolfactory human GPCRs (Homo sapiens, UniProt P29371); details: TACR3; C21 5 µM
T5 construct: expressed in transfected cells; host or cells: HTLA cells, transient

[8] = target: 318 nonolfactory human GPCRs (Homo sapiens, UniProt P30989); details: NTSR1; C21 5 µM
[9] = target: T6, 318 nonolfactory human GPCRs (Homo sapiens, UniProt P35367); details: HRH1; C21 5 µM
T6 construct: expressed in transfected cells; host or cells: HTLA cells, transient

[10] = target: 318 nonolfactory human GPCRs (Homo sapiens, UniProt P46093); details: GPR4; C21 5 µM
[11] = target: T7, 318 nonolfactory human GPCRs (Homo sapiens, UniProt P47871); details: GCGR; C21 5 µM
T7 construct: expressed in transfected cells; host or cells: HTLA cells, transient

[12] = target: T8, 318 nonolfactory human GPCRs (Homo sapiens, UniProt P47901); details: AVPR1B; C21 5 µM
T8 construct: expressed in transfected cells; host or cells: HTLA cells, transient

[13] = target: T9, 318 nonolfactory human GPCRs (Homo sapiens, UniProt P50391); details: NPY4R; C21 5 µM
T9 construct: expressed in transfected cells; host or cells: HTLA cells, transient

[14] = target: T10, 318 nonolfactory human GPCRs (Homo sapiens, UniProt P51582); details: P2RY4; C21 5 µM
T10 construct: expressed in transfected cells; host or cells: HTLA cells, transient

[15] = target: T11, 318 nonolfactory human GPCRs (Homo sapiens, UniProt Q01718); details: MC2R; C21 5 µM
T11 construct: expressed in transfected cells; host or cells: HTLA cells, transient

[16] = target: T12, 318 nonolfactory human GPCRs (Homo sapiens, UniProt Q01726); details: MC1R; C21 5 µM
T12 construct: expressed in transfected cells; host or cells: HTLA cells, transient

[17] = target: T13, 318 nonolfactory human GPCRs (Homo sapiens, UniProt Q13324); details: CRHR2; C21 5 µM
T13 construct: expressed in transfected cells; host or cells: HTLA cells, transient

[18] = target: T14, 318 nonolfactory human GPCRs (Homo sapiens, UniProt Q86SP6); details: GPR149; C21 5 µM
T14 construct: expressed in transfected cells; host or cells: HTLA cells, transient

[19] = target: T15, 318 nonolfactory human GPCRs (Homo sapiens, UniProt Q86SQ4); details: GPR126; C21 5 µM
T15 construct: expressed in transfected cells; host or cells: HTLA cells, transient

[20] = target: 318 nonolfactory human GPCRs (Homo sapiens, UniProt Q8IYL9); details: GPR65; C21 5 µM
[21] = target: 318 nonolfactory human GPCRs (Homo sapiens, UniProt Q8TDS4); details: HCA2; C21 5 µM
[22] = target: T16, 318 nonolfactory human GPCRs (Homo sapiens, UniProt Q96G91); details: P2RY11; C21 5 µM
T16 construct: expressed in transfected cells; host or cells: HTLA cells, transient

[23] = target: T17, 318 nonolfactory human GPCRs (Homo sapiens, UniProt Q96P67); details: GPR82; C21 5 µM
T17 construct: expressed in transfected cells; host or cells: HTLA cells, transient

[24] = target: T18, 318 nonolfactory human GPCRs (Homo sapiens, UniProt Q96P68); details: OXGR1; C21 5 µM
T18 construct: expressed in transfected cells; host or cells: HTLA cells, transient

[25] = target: 318 nonolfactory human GPCRs (Homo sapiens, UniProt Q96PE1); details: GPR124; C21 5 µM
[26] = target: T19, 318 nonolfactory human GPCRs (Homo sapiens, UniProt Q99705); details: MCHR1R; C21 5 µM
T19 construct: expressed in transfected cells; host or cells: HTLA cells, transient

[27] = target: T20, 318 nonolfactory human GPCRs (Homo sapiens, UniProt Q9BPV8); details: P2RY13; C21 5 µM
T20 construct: expressed in transfected cells; host or cells: HTLA cells, transient

[28] = target: T21, 318 nonolfactory human GPCRs (Homo sapiens, UniProt Q9BZJ6); details: GPR63; C21 5 µM
T21 construct: expressed in transfected cells; host or cells: HTLA cells, transient

[29] = target: T22, 318 nonolfactory human GPCRs (Homo sapiens, UniProt Q9BZJ7); details: GPR62; C21 5 µM
T22 construct: expressed in transfected cells; host or cells: HTLA cells, transient

[30] = target: T23, 318 nonolfactory human GPCRs (Homo sapiens, UniProt Q9H1C0); details: LPAR5; C21 5 µM
T23 construct: expressed in transfected cells; host or cells: HTLA cells, transient

[31] = target: T24, 318 nonolfactory human GPCRs (Homo sapiens, UniProt Q9H244); details: P2RY12; C21 5 µM
T24 construct: expressed in transfected cells; host or cells: HTLA cells, transient

[32] = target: T25, 318 nonolfactory human GPCRs (Homo sapiens, UniProt Q9P296); details: GPR77; C21 5 µM
T25 construct: expressed in transfected cells; host or cells: HTLA cells, transient

[33] = target: T26, 318 nonolfactory human GPCRs (Homo sapiens, UniProt Q9UJ42); details: GPR160; C21 5 µM
T26 construct: expressed in transfected cells; host or cells: HTLA cells, transient

[34] = target: 318 nonolfactory human GPCRs (Homo sapiens, UniProt Q9UPC5); details: GPR34; C21 5 µM
Chain of 318 nonolfactory human GPCRs (Homo sapiens, UniProt Q9UPC5) (Q9UPC5 whole entry): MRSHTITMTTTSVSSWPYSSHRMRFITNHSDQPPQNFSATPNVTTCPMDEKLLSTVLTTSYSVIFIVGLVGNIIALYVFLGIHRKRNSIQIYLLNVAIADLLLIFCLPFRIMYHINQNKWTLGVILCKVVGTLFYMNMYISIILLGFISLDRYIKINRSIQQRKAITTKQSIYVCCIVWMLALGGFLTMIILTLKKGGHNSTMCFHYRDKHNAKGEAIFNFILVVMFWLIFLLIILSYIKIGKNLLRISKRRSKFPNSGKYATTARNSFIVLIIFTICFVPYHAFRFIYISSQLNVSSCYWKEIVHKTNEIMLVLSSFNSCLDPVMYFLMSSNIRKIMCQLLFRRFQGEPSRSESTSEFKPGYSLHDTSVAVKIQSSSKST

T12 sequence (Q01726 whole entry): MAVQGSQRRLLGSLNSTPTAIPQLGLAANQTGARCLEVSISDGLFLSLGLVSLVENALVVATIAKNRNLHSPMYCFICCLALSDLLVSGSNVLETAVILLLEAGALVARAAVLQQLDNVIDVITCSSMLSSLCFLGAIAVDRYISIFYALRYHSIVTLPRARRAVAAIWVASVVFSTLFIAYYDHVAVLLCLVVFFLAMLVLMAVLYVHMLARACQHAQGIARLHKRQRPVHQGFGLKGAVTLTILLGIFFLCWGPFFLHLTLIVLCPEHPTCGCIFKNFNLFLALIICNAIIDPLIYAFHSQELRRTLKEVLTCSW
T21 sequence (Q9BZJ6 whole entry): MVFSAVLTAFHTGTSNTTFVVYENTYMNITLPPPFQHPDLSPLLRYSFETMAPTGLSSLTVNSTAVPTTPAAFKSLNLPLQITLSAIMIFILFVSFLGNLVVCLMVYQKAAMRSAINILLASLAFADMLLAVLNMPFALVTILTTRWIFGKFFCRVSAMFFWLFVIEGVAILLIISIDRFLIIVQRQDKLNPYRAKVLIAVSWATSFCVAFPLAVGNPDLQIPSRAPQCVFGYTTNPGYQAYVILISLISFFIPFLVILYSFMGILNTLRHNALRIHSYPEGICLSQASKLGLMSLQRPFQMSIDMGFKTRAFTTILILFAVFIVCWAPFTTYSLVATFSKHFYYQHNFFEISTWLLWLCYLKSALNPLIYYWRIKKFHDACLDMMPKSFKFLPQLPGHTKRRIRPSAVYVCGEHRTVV
Chain of 318 nonolfactory human GPCRs (Homo sapiens, UniProt P30989) (P30989 whole entry): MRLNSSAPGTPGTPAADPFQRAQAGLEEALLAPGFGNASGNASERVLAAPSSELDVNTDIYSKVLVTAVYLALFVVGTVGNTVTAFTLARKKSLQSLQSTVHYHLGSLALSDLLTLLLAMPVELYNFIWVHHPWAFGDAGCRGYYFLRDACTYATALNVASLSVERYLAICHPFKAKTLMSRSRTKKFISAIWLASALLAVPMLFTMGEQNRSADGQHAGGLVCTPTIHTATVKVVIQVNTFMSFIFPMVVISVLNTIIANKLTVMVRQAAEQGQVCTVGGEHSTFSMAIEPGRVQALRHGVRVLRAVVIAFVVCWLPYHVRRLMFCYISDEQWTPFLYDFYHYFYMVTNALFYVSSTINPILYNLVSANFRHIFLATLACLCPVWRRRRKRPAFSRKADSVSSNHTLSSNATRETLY
Chain of 318 nonolfactory human GPCRs (Homo sapiens, UniProt Q8TDS4) (Q8TDS4 whole entry): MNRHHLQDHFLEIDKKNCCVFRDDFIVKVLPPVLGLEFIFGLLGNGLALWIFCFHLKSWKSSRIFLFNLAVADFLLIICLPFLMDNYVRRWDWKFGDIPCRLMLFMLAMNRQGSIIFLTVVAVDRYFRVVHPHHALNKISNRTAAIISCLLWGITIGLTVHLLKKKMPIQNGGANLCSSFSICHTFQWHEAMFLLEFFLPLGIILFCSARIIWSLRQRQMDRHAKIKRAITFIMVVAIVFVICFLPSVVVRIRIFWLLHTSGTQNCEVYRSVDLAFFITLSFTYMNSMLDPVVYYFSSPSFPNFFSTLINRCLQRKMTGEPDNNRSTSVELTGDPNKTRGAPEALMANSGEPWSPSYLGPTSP
T14 sequence (Q86SP6 whole entry): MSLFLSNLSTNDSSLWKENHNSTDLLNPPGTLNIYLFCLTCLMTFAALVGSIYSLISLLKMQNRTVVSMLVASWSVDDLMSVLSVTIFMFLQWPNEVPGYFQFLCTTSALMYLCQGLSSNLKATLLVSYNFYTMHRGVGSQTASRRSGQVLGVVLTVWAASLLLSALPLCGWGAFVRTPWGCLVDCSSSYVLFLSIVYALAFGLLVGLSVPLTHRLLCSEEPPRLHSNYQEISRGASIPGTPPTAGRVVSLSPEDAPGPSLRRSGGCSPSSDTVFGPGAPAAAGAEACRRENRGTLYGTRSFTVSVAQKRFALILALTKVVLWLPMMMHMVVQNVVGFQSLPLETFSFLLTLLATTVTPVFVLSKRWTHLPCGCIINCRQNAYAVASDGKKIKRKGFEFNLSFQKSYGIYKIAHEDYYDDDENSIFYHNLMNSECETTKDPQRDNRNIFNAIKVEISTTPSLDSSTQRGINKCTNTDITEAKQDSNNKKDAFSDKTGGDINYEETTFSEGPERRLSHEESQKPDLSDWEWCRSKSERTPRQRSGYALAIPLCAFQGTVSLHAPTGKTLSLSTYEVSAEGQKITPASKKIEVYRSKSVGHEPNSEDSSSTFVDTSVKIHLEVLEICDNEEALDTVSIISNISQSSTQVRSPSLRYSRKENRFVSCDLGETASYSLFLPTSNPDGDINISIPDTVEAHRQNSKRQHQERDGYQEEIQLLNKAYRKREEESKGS
T24 sequence (Q9H244 whole entry): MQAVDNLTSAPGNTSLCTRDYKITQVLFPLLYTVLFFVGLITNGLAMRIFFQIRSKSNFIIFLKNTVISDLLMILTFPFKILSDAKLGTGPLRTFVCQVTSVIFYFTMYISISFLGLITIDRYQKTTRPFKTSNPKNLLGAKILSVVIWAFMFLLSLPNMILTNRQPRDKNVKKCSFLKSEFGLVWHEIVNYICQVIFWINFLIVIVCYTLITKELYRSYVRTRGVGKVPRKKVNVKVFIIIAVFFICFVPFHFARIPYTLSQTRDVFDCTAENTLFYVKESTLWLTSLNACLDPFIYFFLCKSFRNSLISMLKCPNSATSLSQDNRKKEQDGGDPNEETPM
Chain of 318 nonolfactory human GPCRs (Homo sapiens, UniProt P28566) (P28566 whole entry): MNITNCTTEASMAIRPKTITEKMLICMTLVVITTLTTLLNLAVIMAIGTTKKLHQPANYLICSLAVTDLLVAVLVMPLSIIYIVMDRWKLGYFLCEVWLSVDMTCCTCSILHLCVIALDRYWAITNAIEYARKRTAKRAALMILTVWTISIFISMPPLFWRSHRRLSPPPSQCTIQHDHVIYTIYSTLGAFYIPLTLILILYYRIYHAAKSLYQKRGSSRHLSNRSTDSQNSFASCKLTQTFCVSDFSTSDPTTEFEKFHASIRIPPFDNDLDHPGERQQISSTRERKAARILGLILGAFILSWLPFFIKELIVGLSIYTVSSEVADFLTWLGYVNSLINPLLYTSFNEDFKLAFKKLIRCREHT
T16 sequence (Q96G91 whole entry): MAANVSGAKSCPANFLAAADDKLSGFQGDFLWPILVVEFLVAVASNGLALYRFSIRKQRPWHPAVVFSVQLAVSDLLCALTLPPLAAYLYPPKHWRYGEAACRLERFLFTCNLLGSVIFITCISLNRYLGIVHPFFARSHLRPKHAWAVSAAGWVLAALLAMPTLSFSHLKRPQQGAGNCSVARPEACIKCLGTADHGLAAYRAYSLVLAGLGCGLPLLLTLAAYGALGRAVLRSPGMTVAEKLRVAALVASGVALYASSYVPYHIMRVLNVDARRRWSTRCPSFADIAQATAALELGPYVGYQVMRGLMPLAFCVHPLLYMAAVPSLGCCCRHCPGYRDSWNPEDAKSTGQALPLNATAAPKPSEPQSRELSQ
T2 sequence (O95800 whole entry): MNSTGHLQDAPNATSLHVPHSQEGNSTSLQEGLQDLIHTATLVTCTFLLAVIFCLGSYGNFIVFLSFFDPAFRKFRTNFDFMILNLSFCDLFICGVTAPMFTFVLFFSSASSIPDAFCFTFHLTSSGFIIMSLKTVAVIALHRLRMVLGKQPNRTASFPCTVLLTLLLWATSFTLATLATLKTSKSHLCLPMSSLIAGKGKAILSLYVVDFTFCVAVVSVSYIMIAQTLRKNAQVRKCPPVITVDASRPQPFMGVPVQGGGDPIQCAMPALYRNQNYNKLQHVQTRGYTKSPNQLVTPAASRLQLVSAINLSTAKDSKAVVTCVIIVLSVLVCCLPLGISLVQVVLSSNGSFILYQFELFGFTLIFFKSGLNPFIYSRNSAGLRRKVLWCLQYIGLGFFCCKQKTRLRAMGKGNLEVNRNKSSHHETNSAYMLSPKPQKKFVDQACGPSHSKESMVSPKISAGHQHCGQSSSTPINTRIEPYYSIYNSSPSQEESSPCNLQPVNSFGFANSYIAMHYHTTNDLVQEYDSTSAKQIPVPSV
Chain of 318 nonolfactory human GPCRs (Homo sapiens, UniProt P28221) (P28221 whole entry): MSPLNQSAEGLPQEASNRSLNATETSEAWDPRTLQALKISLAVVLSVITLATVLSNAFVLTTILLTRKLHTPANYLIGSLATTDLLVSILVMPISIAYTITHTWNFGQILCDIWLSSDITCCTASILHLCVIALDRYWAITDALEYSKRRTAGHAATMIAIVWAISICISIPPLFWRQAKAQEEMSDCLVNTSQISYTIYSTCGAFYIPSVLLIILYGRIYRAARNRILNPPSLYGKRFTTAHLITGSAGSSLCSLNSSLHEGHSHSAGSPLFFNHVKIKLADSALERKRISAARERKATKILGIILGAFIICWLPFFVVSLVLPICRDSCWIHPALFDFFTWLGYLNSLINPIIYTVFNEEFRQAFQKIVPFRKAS
T11 sequence (Q01718 whole entry): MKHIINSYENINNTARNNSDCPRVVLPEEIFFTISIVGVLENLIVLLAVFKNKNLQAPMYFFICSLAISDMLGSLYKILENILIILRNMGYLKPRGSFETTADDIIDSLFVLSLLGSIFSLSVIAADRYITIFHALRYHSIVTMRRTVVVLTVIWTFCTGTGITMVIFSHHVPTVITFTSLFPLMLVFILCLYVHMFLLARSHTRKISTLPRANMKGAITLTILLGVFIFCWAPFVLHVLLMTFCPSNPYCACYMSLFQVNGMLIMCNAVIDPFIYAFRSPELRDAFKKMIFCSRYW

c1ccc2c(c1)N=C(N1CCNCC1)c1ccccc1N2 [C21, 11-(1-piperazinyl)-5H-dibenzo[b,e][1,4]diazepine]
FOLD OVER BASAL [1]: 1.1 fold and 0.9 fold and 1.2 fold and 0.7 fold | FOLD OVER BASAL [2]: 1.1 fold and 0.8 fold and 0.7 fold | FOLD OVER BASAL [3]: 3.1 fold and 3.7 fold and 2.6 fold and 3.4 fold | FOLD OVER BASAL [4]: 1 fold and 1.1 fold and 1.3 fold | FOLD OVER BASAL [5]: 1 fold and 0.9 fold and 1.1 fold | FOLD OVER BASAL [6]: 0.6 fold and 0.7 fold and 0.5 fold and 0.4 fold | FOLD OVER BASAL [7]: 1.2 fold and 0.8 fold and 0.6 fold and 0.7 fold | FOLD OVER BASAL [8]: 1.1 fold and 0.9 fold and 1.2 fold | FOLD OVER BASAL [9]: 0.9 fold and 0.6 fold and 0.8 fold | FOLD OVER BASAL [10]: 0.5 fold and 0.8 fold and 0.6 fold | FOLD OVER BASAL [11]: 0.3 fold and 0.2 fold and 0.4 fold | FOLD OVER BASAL [12]: 0.4 fold and 0.6 fold and 0.7 fold | FOLD OVER BASAL [13]: 0.5 fold and 0.6 fold and 0.7 fold | FOLD OVER BASAL [14]: 1 fold and 0.9 fold | FOLD OVER BASAL [15]: 1.1 fold and 0.6 fold and 0.7 fold | FOLD OVER BASAL [16]: 0.9 fold and 1.1 fold and 1 fold and 0.7 fold | FOLD OVER BASAL [17]: 1.3 fold and 1 fold and 0.9 fold | FOLD OVER BASAL [18]: 0.8 fold and 0.5 fold and 0.7 fold and 0.9 fold | FOLD OVER BASAL [19]: 0.3 fold and 0.4 fold | FOLD OVER BASAL [20]: 0.8 fold and 0.5 fold | FOLD OVER BASAL [21]: 1.2 fold and 1.1 fold and 1.3 fold and 1.4 fold | FOLD OVER BASAL [22]: 1.1 fold and 0.8 fold and 0.6 fold and 0.9 fold | FOLD OVER BASAL [23]: 1 fold and 0.9 fold and 1.1 fold | FOLD OVER BASAL [24]: 0.7 fold and 0.6 fold and 1.2 fold | FOLD OVER BASAL [25]: 1 fold and 0.7 fold | FOLD OVER BASAL [26]: 1 fold and 0.8 fold and 1.1 fold and 1.4 fold | FOLD OVER BASAL [27]: 0.8 fold and 1 fold and 1.2 fold | FOLD OVER BASAL [28]: 0.6 fold and 0.5 fold and 0.9 fold | FOLD OVER BASAL [29]: 0.8 fold and 0.5 fold and 0.9 fold | FOLD OVER BASAL [30]: 0.8 fold and 1.2 fold and 0.6 fold and 0.7 fold | FOLD OVER BASAL [31]: 0.6 fold and 1 fold and 0.5 fold and 0.8 fold | FOLD OVER BASAL [32]: 0.7 fold and 0.6 fold | FOLD OVER BASAL [33]: 1.3 fold and 1 fold and 0.8 fold | FOLD OVER BASAL [34]: 1.2 fold and 1.1 fold and 1.4 fold
